# Reference: the PolyMetriX glass transition set
# ± gives the standard deviation of the reports.
row,Compound,glass transition temperature [°C]
1,*CC(*)C(=O)OCCN(CC)c1ccc(/N=N/c2ccc([N+](=O)[O-])cc2)cc1 (repeat unit),102.00
2,*CC(CC)(CC)C(=O)O* (repeat unit),60.00
3,*CC(*)C(N)=O (repeat unit) [Poly(acrylamide)],178.92 ± 20
4,*c1ccc(Oc2ccc3ccccc3c2-c2c(Oc3ccc(N4C(=O)c5ccc(NC(=O)Nc6ccc(-c7cc(-c8ccc(-c9ccccc9)cc8)cc(-c8ccc(NC(=O)Nc9ccc%10c(c9)C(=O)N(*)C%10=O)cc8)n7)cc6)cc5C4=O)cc3)ccc3ccccc23)cc1 (repeat unit),302.00
5,*CC(*)(C)C(=O)OCCO (repeat unit) [Poly(2-hydroxyethyl methacrylate)],84.03 ± 10
6,*Oc1ccc2cc(OC(=O)c3ccc(-c4ccc(C(*)=O)cc4)cc3-c3ccccc3)ccc2c1 (repeat unit),125.00
7,*C/C=C/C[Si](*)(C)CCCOc1ccc2ccccc2c1 (repeat unit),-1.00
8,*c1cccc(Cc2cccc(N3C(=O)c4ccc([Si](C)(C)c5ccc([Si](C)(C)c6ccc7c(c6)C(=O)N(*)C7=O)cc5)cc4C3=O)c2)c1 (repeat unit),246.00
9,*CC(O)CCCCC(O)CN(*)c1ccc(N(C)C)cc1 (repeat unit),72.00
10,*CC(*)c1ccc(C(O)CCN2CCOCC2)cc1 (repeat unit),50.00
11,*CC(C)(C)COC(=O)Nc1ccc(C)c(NC(=O)O*)c1 (repeat unit),-32.00
12,*CC(*)c1cccc(NC(C)=O)c1 (repeat unit),163.00
13,*C(=O)Oc1ccc(C2(c3ccc(OC(=O)c4ccc5c(c4)C(=O)N(c4ccc(-c6ccc(N7C(=O)c8ccc(*)cc8C7=O)cc6C)c(C)c4)C5=O)cc3)CCC(C(C)(C)C)CC2)cc1 (repeat unit),217.00
14,*CC(*)OC(=O)CCl (repeat unit),20.5
15,*CCCNC(=O)CCCCC(=O)NCCCO* (repeat unit),34.00
16,*Oc1ccc(/C(C)=N/c2ccc(/N=C(\C)c3ccc(Oc4ccc(C(c5ccccc5)(c5ccccc5)c5ccc(*)cc5)cc4)cc3)cc2)cc1 (repeat unit),178.00
17,*CC(*)c1ccc(COCCCCO)cc1 (repeat unit),20.00
18,*OC(=O)CCC(=O)OC1COC2C(*)COC12 (repeat unit),77.00
19,*CC(OC)C(C)(C(=O)OC)C(*)(C)C(=O)OC (repeat unit),134.00
20,*Cc1ccc(C(C)(CC)c2ccc(Cn3c(=O)c4cc5c(=O)n(*)c(=O)c5cc4c3=O)o2)o1 (repeat unit),143.00
21,*CC(*)(C)C(=O)OCC(F)(F)C(F)(F)C(F)(F)C(F)(F)C(F)(F)C(F)F (repeat unit),12.50
22,*Oc1ccc(C(c2ccc(OC(*)=S)cc2)c2cccc3ccccc23)cc1 (repeat unit),191.00

row,Compound,glass transition temperature [°C]
1,*c1ccc(Cc2ccc(NC(=O)c3ccc(Oc4ccc5c(c4)C(=O)N(*)C5=O)cc3)cc2)cc1 (repeat unit),250.00
2,*c1cc(C(=O)NCCCCCCCCCC)cc(N2C(=O)c3ccc(-c4ccc5c(c4)C(=O)N(*)C5=O)cc3C2=O)c1 (repeat unit),245.10
3,*C(=O)Nc1ccc(C2(c3ccc(N4C(=O)c5ccc(*)cc5C4=O)cc3)CC(C)CC(C)(C)C2)cc1 (repeat unit),328.00
4,*OC(COC(=O)c1cccc(C(*)=O)c1)COc1ccc(/N=N/c2ccc(C#N)cc2)cc1 (repeat unit),119.00
5,*c1ccc(N/C=N/c2ccc(S(*)(=O)=O)cc2)cc1 (repeat unit),163.00
6,*CC(*)C(=O)OCCCCCCOc1ccc(-c2ccc(C#N)cc2)cc1 (repeat unit),45.00
7,*CCOCCOC(=O)O* (repeat unit),-27.00
8,*CCCCC[Si](*)(C)c1ccccc1 (repeat unit),-10.40
9,*CC(*)c1c(F)c(F)c(OCC(F)(F)C(F)(F)F)c(F)c1F (repeat unit),61.00
10,*CCCN(C)c1ccc(C(=O)c2ccc(N(*)C)cc2)cc1 (repeat unit),101.00
11,*Oc1ccc(C2(c3ccc(Oc4ccc(/C=C/C(=O)c5ccc(*)cc5)cc4)cc3)c3ccccc3-c3ccccc32)cc1 (repeat unit),195.00
12,*c1cccc(C(=O)Nc2ccc(NC(=O)c3cccc(N4C(=O)c5ccc(-c6cccc7c6C(=O)N(*)C7=O)cc5C4=O)c3)cc2)c1 (repeat unit),328.00
13,*c1c(C)cc(C(c2cccnc2)c2cc(C)c(N3C(=O)CC(Nc4cccc(NC5CC(=O)N(*)C5=O)c4)C3=O)c(C)c2)cc1C (repeat unit),224.00
14,*C(=O)Nc1ccc(Oc2ccc(Oc3ccc(NC(=O)c4ccc5c(c4)C(=O)N(c4ccc(S(=O)(=O)c6ccc(N7C(=O)c8ccc(*)cc8C7=O)cc6)cc4)C5=O)cc3)cc2)cc1 (repeat unit),243.00
15,*Oc1ccc(C(c2ccc(OC(*)=O)cc2)C2CCCCC2)cc1 (repeat unit),190.00
16,*CCCC(C)(C)CNC(=O)c1cccc(C(=O)N*)c1 (repeat unit),153.00
17,*Oc1cccc(Oc2ccc3c(=O)n4c5cc(Oc6ccc7c(c6)nc6c8ccc(*)c9cccc(c(=O)n76)c98)ccc5nc4c4cccc2c34)c1 (repeat unit),369.50
18,*CCCCCCCCCCc1nc2ccc(-c3ccc4nc(*)oc4c3)cc2o1 (repeat unit),64.00
19,*Oc1ccc(C(C)(C)c2ccc(C(C)(C)c3ccc(Oc4ccc(C(=O)Nc5ccc(NC(=O)c6ccc(*)cc6)cc5)cc4)cc3)cc2)cc1 (repeat unit),163.00
20,*C1C(=O)N(c2ccc(O[Si](C)(C)C)cc2)C(=O)C1* (repeat unit),172.00
21,*Oc1ccc(C(C)(C)c2ccc(OC(*)=O)c(Cl)c2)cc1Cl (repeat unit),147.00
22,*CC(*)(C)C(=O)OCCCCCCCCCCn1c2ccccc2c2cc(/C=C/C3=C(C#N)C(=C(C#N)C#N)OC3(C)C)ccc21 (repeat unit),55.00

row,Compound,glass transition temperature [°C]
1,*CCCCCCOC(=O)C(CCCCCP(=O)(O)O)C(=O)OCCCCCCOc1ccc(-n2on2-c2ccc(O*)cc2)cc1 (repeat unit),17.00
2,"*CC(*)c1ccc(C)cc1C (repeat unit) [Poly(2,4-dimethyl styrene) ]",112 ± 0.6
3,*OC1C(CO)OC(*)C(NC(C)=O)C1O (repeat unit),154.60
4,*Oc1cc(C(C)(C)C)c(Oc2ccc(C(=O)Nc3c(C)cc(C(C)(C)c4cc(C)c(NC(=O)c5ccc(*)cc5)c(C)c4)cc3C)cc2)cc1C(C)(C)C (repeat unit),295.00
5,*c1ccc(Oc2ccc(C(C)(C)c3ccc(Oc4ccc(N5C(=O)CC(=O)N(*)C5=S)cc4)cc3)cc2)cc1 (repeat unit),150.00
6,*Oc1c(Cl)cc(C(C)(C)c2cc(Cl)c(OC(=O)c3ccc(OCCCCCCCCCCOc4ccc(C(*)=O)cc4)cc3)c(Cl)c2)cc1Cl (repeat unit),140.00
7,*Oc1ccc(Sc2ccc(Oc3ccc4c(=O)n5c6cc(Oc7ccc8c(c7)nc7c9ccc(*)c%10cccc(c(=O)n87)c%109)ccc6nc5c5cccc3c45)cc2)cc1 (repeat unit),346.00
8,*CC(*)(C)C(=O)OCC(O)C1CC(C)(c2ccccc2)C1 (repeat unit),105.00
9,*CCCCCCCCCCOc1ccc(/C=C/c2ccc(OCCCCCCCCCCOP(=O)(O*)OCCCCCCCCCCOc3ccc(/N=N/c4ccc(Cl)cc4)cc3)cc2)cc1 (repeat unit),60.00
10,*c1ccc(Oc2ccc(N3C(=O)c4ccc(Oc5ccccc5Oc5ccc6c(c5)C(=O)N(*)C6=O)cc4C3=O)cc2)cc1 (repeat unit),212.00
11,*O[Si](*)(C)CCCCCCCCCCC(=O)Oc1ccc2cc(C(=O)OC3CCC4(C)C(=CCC5C4CCC4(C)C(C(C)CCCC(C)C)CCC54)C3)ccc2c1 (repeat unit),27.00
12,*C(=O)Nc1ccc(Oc2ccc(NC(=O)c3ccc4c(c3)C(=O)N(c3cccc(P(=O)(c5ccccc5)c5cccc(N6C(=O)c7ccc(*)cc7C6=O)c5)c3)C4=O)cc2)cc1 (repeat unit),235.00
13,*c1ccc(Oc2ccccc2Oc2ccc(N3C(=O)c4ccc(Oc5ccc6c(c5)C(=O)N(*)C6=O)cc4C3=O)cc2C(F)(F)F)c(C(F)(F)F)c1 (repeat unit),223.00
14,*CCOc1ccc(S(=O)(=O)c2ccc(OCCOP(=O)(O*)Oc3ccccc3)cc2)cc1 (repeat unit),49.00
15,*O[Si](*)(CCCOCCOCCOCCOCCOC)CCCOCCOCCOCCOCCOC (repeat unit),-69.80
16,*Oc1ccc(C2(c3ccc(Oc4c(F)c(F)c(C(=O)c5c(F)c(F)c(*)c(F)c5F)c(F)c4F)cc3)c3ccccc3-c3ccccc32)cc1 (repeat unit),223.00
17,*CC(*)(C)C(=O)OCCCOc1ccc(-c2ccc(C#N)cc2)cc1 (repeat unit),97.00
18,*c1cccc(C(=O)Nc2ccc(Oc3ccc(NC(=O)c4cccc(N5C(=O)c6ccc(-c7cccc8c7C(=O)N(*)C8=O)cc6C5=O)c4)cc3)cc2)c1 (repeat unit),291.00
19,*c1ccc(-c2nnc(*)o2)c(OCCCCC)c1 (repeat unit),205.00
20,*c1ccc(-c2cc(CCCCCCCC)c(-c3ccc(-c4ccc(-c5sc(-c6ccc([Si](*)(C)C)s6)cc5CCCCCCCC)s4)s3)s2)s1 (repeat unit),31.00
21,*C(=O)Nc1cccc(NC(=O)c2ccc3c(c2)C(=O)N(c2ccc(-c4sc(-c5ccc(N6C(=O)c7ccc(*)cc7C6=O)cc5)c(-c5ccccc5)c4-c4ccccc4)cc2)C3=O)c1 (repeat unit),334.00
